Data reported in patent publication US10570117B2, “Phenylimidazole compound” (Otsuka Pharmaceutical Factory, Inc., priority 2015, dated 2020).
Converted amounts (≈) assume the structure as drawn. Read-outs that look alike come from different tables or passages of the source.

Experiments:
[1] = Solubility in gastric juice or intestinal juice model fluid (precipitation method using DMSO); format: physicochemical; conditions: room temperature
Method in brief: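 Compound in DMSO added to JP disintegration test fluid 1 (pH 1.2) or fluid 2 (pH 6.8) and shaken 24 h at room temperature. After filtration, dissolved concentration (μg/mL) determined by UV absorbance against compound calibration curves.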

[2] = system: lipoprotein lipase (LPL) gene; assay: LPL mRNA elevating action (RT-PCR quantification of LPL mRNA in C2Cl2 cells); format: cell-based, mouse; conditions: Mus musculus, 24 h, compound 10 μM, ratio relative to the amount of LPL mRNA in cells with DMSO only, read-out: Rate of increase in LPL mRNA
Method in brief: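 Mouse striated-muscle C2Cl2 cells in DMEM with 10% FBS exposed to compounds at 10 μM for 24 h. LPL mRNA quantified by RT-PCR and real-time PCR (20 cycles), expressed as ratio to DMSO-only cells set at 1.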

[3] = pH 1.2, simulated gastric fluid, kinetic from dmso stock, 1st fluid for Disintegration Test of Japanese Pharmacopoeia (pH: 1.2), read-out: Solubility (μg/mL) 1st fluid
[4] = pH 6.8, kinetic from dmso stock, 2nd fluid for Disintegration Test of Japanese Pharmacopoeia (pH: 6.8), read-out: Solubility (μg/mL) 2nd fluid

Structure (SMILES) | solubility at 24 h [1, 3] [µg/mL] | solubility at 24 h [1, 4] [µg/mL] | melting point | fold induction at 10 µM [2]
COc1cc(-c2[nH]c(C3CCC(F)(F)C3)nc2Cl)ccc1OCc1ncc(C(F)(F)F)cc1F (stereo not drawn) [Example 347] | 83.2 (≈ 164 µM) | < 0.4 | 142 to 147 °C | 3.28
COc1cc(-c2cnc(C3CC(F)(F)C3)[nH]2)ccc1OCc1ncc(C(F)(F)F)cc1F [Example 348] | 89.6 (≈ 196 µM) | 22.4 (≈ 49 µM) | 105 to 110 °C | 1.76
COc1cc(OCc2ncc(C(F)(F)F)cc2F)ccc1-c1cnc(C2CC(F)(F)C2)[nH]1 [Example 349] | 83.6 (≈ 183 µM) | 10.8 (≈ 23.6 µM) | 70 to 75 °C | 2.2
Cc1cc(O)ccc1-c1cnc(-c2ccc(F)nc2)[nH]1 [Example 350] | 53.3 (≈ 198 µM) | 51 (≈ 189 µM) | 218 to 220 °C | 1.38
Cc1cc(OCc2ncc(C(F)(F)F)cc2F)ccc1-c1cnc(-c2ccc(F)nc2)[nH]1 [Example 351] | 85.9 (≈ 192 µM) | 7 (≈ 15.7 µM) | 216 to 222 °C | 4.12
Cc1cc(OCc2ncc(C(F)(F)F)cc2F)ccc1-c1[nH]c(-c2ccc(F)nc2)nc1Cl [Example 352] | 9.8 (≈ 20.4 µM) | 6 (≈ 12.5 µM) | 204 to 206 °C | 5.48
COc1cc(OCc2ncc(C(F)(F)F)cc2F)ccc1-c1[nH]c(C2CC(F)(F)C2)nc1Cl [Example 353] | 85.4 (≈ 174 µM) | 0.5 (≈ 1.02 µM) | 167 to 169 °C | 4.08
COc1cc(-c2[nH]c(C3CC(F)(F)C3)nc2Cl)ccc1OCc1ncc(C(F)(F)F)cc1F [Example 354] | 38.8 (≈ 78.9 µM) | 1.1 (≈ 2.24 µM) | 159 to 161 °C | 4.44
Fc1ccc(-c2nc(Cl)c(-c3ccc(OCc4ncc(C(F)(F)F)cc4F)cc3)[nH]2)cn1 [Example 355] | < 0.3 | < 0.3 | 180 to 183 °C | 3.59
CCSc1ccc(-c2ncc(-c3ccc(OCc4ncc(C(F)(F)F)cc4F)cc3OC)[nH]2)cn1 [Example 357] | 7.8 (≈ 15.5 µM) | < 0.3 | 145 to 149 °C | 3.59
CCSc1ccc(-c2nc(Cl)c(-c3ccc(OCc4ccc(C(F)(F)F)nc4)cc3OC)[nH]2)cn1 [Example 358] | 1.6 (≈ 3.07 µM) | < 0.4 | 160 to 163 °C | 4.18
Oc1ccc(-c2cnc(-c3ccc(F)nc3)[nH]2)c(Cl)c1 [Example 359] | 57.3 (≈ 198 µM) | 52.8 (≈ 182 µM) | 223 to 225 °C | 1.75
Fc1ccc(-c2ncc(-c3ccc(OCc4ncc(C(F)(F)F)cc4F)cc3Cl)[nH]2)cn1 [Example 360] | 90.7 (≈ 194 µM) | 0.6 (≈ 1.29 µM) | 169 to 171 °C | 3.93
Fc1ccc(-c2nc(Cl)c(-c3ccc(OCc4ncc(C(F)(F)F)cc4F)cc3Cl)[nH]2)cn1 [Example 361] | 3.4 (≈ 6.78 µM) | < 0.4 | 158 to 160 °C | 5.51
CCc1cc(OCc2ncc(C(F)(F)F)cc2F)ccc1-c1cnc(-c2ccc(F)nc2)[nH]1 [Example 363] | 104 (≈ 225 µM) | 6.9 (≈ 15 µM) | 115 to 117 °C | 2.78
CCc1cc(OCc2ncc(C(F)(F)F)cc2F)ccc1-c1[nH]c(-c2ccc(F)nc2)nc1Cl [Example 364] | < 0.4 | < 0.4 | 187 to 188 °C | 2.65
COc1cc(OCc2ncc(C(F)(F)F)cc2F)ccc1-c1cnc(C2CCCC2)[nH]1 [Example 365] | 77.9 (≈ 179 µM) | 31.2 (≈ 71.7 µM) | 97 to 102 °C | 3.02
COc1cc(OCc2ncc(C(F)(F)F)cc2F)ccc1-c1[nH]c(C2CCCC2)nc1Cl [Example 367] | 82.1 (≈ 175 µM) | < 0.3 | 139 to 142 °C | 2.54
COc1cc(-c2[nH]c(C3CCCC3)nc2Cl)ccc1OCc1ncc(C(F)(F)F)cc1F [Example 368] | 82.9 (≈ 176 µM) | 0.5 (≈ 1.06 µM) | 158 to 163 °C | 2.62
Fc1ccc(-c2ncc(-c3ccc(OCc4ncc(C(F)(F)F)cc4F)cc3F)[nH]2)cn1 [Example 369] | 35.9 (≈ 79.7 µM) | < 0.3 | 167 to 172 °C | 1.26

Structure (SMILES) | solubility at 24 h [1, 3] [µg/mL] | solubility at 24 h [1, 4] [µg/mL] | melting point | fold induction at 10 µM [2]
Fc1ccc(-c2nc(Cl)c(-c3ccc(OCc4ncc(C(F)(F)F)cc4F)cc3F)[nH]2)cn1 [Example 370] | 1.6 (≈ 3.3 µM) | 1.8 (≈ 3.71 µM) | 144 to 146 °C | 3.31
COc1cc(OCc2ncc(C(F)(F)F)cc2F)ccc1-c1[nH]c(C2CCC2)nc1Cl [Example 373] | 88.3 (≈ 194 µM) | < 0.3 | 155 to 157 °C | 3.03
COc1cc(-c2[nH]c(C3CCC3)nc2Cl)ccc1OCc1ncc(C(F)(F)F)cc1F [Example 374] | 88.3 (≈ 194 µM) | 1.2 (≈ 2.63 µM) | 159 to 162 °C | 2.6
COc1cc(OCc2ncc(C(F)(F)F)cc2F)ccc1-c1[nH]c(C2CC2)nc1Cl [Example 377] | 84.6 (≈ 191 µM) | 0.7 (≈ 1.58 µM) | 151 to 154 °C | 1.88
COc1cc(-c2[nH]c(C3CC3)nc2Cl)ccc1OCc1ncc(C(F)(F)F)cc1F [Example 378] | 81.6 (≈ 185 µM) | 7.5 (≈ 17 µM) | 161 to 165 °C (dec.) | 1.24
COc1cc(OCc2ncc(C(F)(F)F)cc2F)ccc1-c1cnc(C(C)(C)C)[nH]1 [Example 379] | 79.9 (≈ 189 µM) | 72.9 (≈ 172 µM) | 141 to 144 °C | 2.87
COc1cc(-c2cnc(C(C)(C)C)[nH]2)ccc1OCc1ncc(C(F)(F)F)cc1F [Example 380] | 81.2 (≈ 192 µM) | 63.7 (≈ 150 µM) | 178 to 182 °C | 1.18
COc1cc(OCc2ncc(C(F)(F)F)cc2F)ccc1-c1cnc(C(C)C)[nH]1 [Example 381] | 78.2 (≈ 191 µM) | 66.9 (≈ 163 µM) | 84 to 89 °C | 2.19
COc1cc(OCc2ncc(C(F)(F)F)cc2F)ccc1-c1[nH]c(C(C)(C)C)nc1Cl [Example 383] | 85.1 (≈ 186 µM) | < 0.3 | 170 to 172 °C | 2.16
COc1cc(-c2[nH]c(C(C)(C)C)nc2Cl)ccc1OCc1ncc(C(F)(F)F)cc1F [Example 384] | 86.4 (≈ 189 µM) | 1.2 (≈ 2.62 µM) | 179 to 184 °C | 1.84
COc1cc(OCc2ncc(C(F)(F)F)cc2F)ccc1-c1[nH]c(C(C)C)nc1Cl [Example 385] | 84.7 (≈ 191 µM) | 2.1 (≈ 4.73 µM) | 131 to 135 °C | 3.18
COc1cc(-c2[nH]c(C(C)C)nc2Cl)ccc1OCc1ncc(C(F)(F)F)cc1F [Example 386] | 82.7 (≈ 186 µM) | 0.9 (≈ 2.03 µM) | 188 to 191 °C (dec.) | 2.77
COc1cc(OCc2ncc(C(F)(F)F)cc2F)ccc1-c1cnc(-c2ccc(Br)nc2)[nH]1 [Example 387] | 4.8 (≈ 9.17 µM) | 0.8 (≈ 1.53 µM) | 191 to 193 °C | 2.41
COc1cc(OCc2ccc(C(F)(F)F)nc2)ccc1-c1cnc(-c2ccc(Br)nc2)[nH]1 [Example 388] | 0.8 (≈ 1.58 µM) | < 0.4 | 222 to 224 °C | 2.13
COc1cc(OCc2ncc(C(F)(F)F)cc2F)ccc1-c1cnc(CCC(F)(F)F)[nH]1 [Example 390] | 49.5 (≈ 107 µM) | 21.6 (≈ 46.6 µM) | 76 to 91 °C | 2.09
Fc1cc(C(F)(F)F)cnc1COc1ccc(-c2cnc(C3CC(F)(F)C3)[nH]2)cc1 [Example 393] | > 85 | 1.9 (≈ 4.45 µM) | 191 to 196 °C | 1.26
COc1cc(OCc2ncc(C(F)(F)F)cc2F)ccc1-c1[nH]c(CCC(F)(F)F)nc1Cl [Example 394] | 96.3 (≈ 193 µM) | < 0.4 | 154 to 159 °C | 2.39
COc1cc(-c2[nH]c(CCC(F)(F)F)nc2Cl)ccc1OCc1ncc(C(F)(F)F)cc1F [Example 395] | 3.8 (≈ 7.63 µM) | < 0.4 | 116 to 119 °C | 2.61
COc1cc(-c2[nH]c(-c3ccc(F)nc3)nc2Cl)ccc1OC(C)c1ncc(C(F)(F)F)cc1F (stereo not drawn) [Example 396] | 28 (≈ 54.8 µM) | < 0.4 | 113 to 118 °C | 2.93
